Counter-ions that a name gives are not always drawn.
Columns and labels:
BC4-M5M11 = test: Test B greenhouse phytotoxicity, BC4-M5M11; format: in vivo, sunflower
Experimental: (§1) A greenhouse experiment was conducted to evaluate the spectrum of tolerance of three homozygous resistant mutants to various herbicides inhibiting acetolactate synthase (ALS) as their mode of action. The inbred lines tested were the 5th generation self-pollinated maintainers, M5M7, M5M11 and M5M12, as well as the 4th generation male sterile back-crosses BC4-M5M7, BC4-M5M11 and BC4-M5M12. Treatments of formulated herbicides were applied post-emergence at the 4-leaf stage. Application rates of the test herbicides were chosen to coincide with the rates commonly used in the crops for which they are registered. The application rate of imazethapyr was chosen to match the rate recommended to control parasitic weeds in sunflowers by L. García-Torres et al., Weed Technology 1995, 9, 819-824. Wild type H89 inbred sunflower was not included in this test, because the many of the tested herbicides are known to be efficacious in controlling volunteer sunflower as a weed. Treatments were replicated twice. […] A rating of 0% phytotoxicity means no crop injury.

M5M11 = test: Test B greenhouse phytotoxicity, M5M11; format: in vivo, sunflower
Experimental: as §1

[1] = tested on: homozygous progeny of the three mutant sources; format: in vivo, sunflower; conditions: Test B application rates, post-emergence
Experimental: as §1

M5M12 = test: Test B greenhouse phytotoxicity, M5M12; format: in vivo, sunflower
Experimental: as §1

BC4-M5M12 = test: Test B greenhouse phytotoxicity, BC4-M5M12; format: in vivo, sunflower
Experimental: as §1

BC4-M5M7 = test: Test B greenhouse phytotoxicity, BC4-M5M7; format: in vivo, sunflower
Experimental: as §1

M5M7 = test: Test B greenhouse phytotoxicity, M5M7; format: in vivo, sunflower
Experimental: as §1

[2] = tested on: BC4-M5M12 × PHA155 hybrid; test: Test E injury to sunflower hybrid; format: in vivo; conditions: in vivo
Experimental: (§2) Based on the results from Test D, a modified protocol was developed to include three timings of post-emergence treatment. The hybrid BC4-M5M12 (female parent)×PHA155 restorer line (male parent) described in Test C was used in this test. Various herbicide programs were tested using three replications. […] Seed coatings of these formulated herbicides were applied to 6 kg of seeds in such amount that considering the distribution of the coated seeds in each pot, the herbicide active ingredient (a.i.) application rates per hectare were as indicated.
(§3) The treatments were applied similar to the methods described for Test D. Pre-emergence applications were broadcast only, not soil incorporated. For pre-emergence application, the pots were sprayed using the high rates of the herbicides two days after sowing the sunflower seeds. Post-emergence treatments were applied at the 4-6 leaf stage of sunflower (corresponding to early stage of Orobanche attachment; identified as “T1”), the 6-8 leaf stage of sunflower (corresponding to the mid stage of Orobanche attachment; nodules <5 mm diameter; identified as “T2”) and 8-12 leaf stage of sunflower (corresponding to late stage of Orobanche attachment; identified as “T3”). The mid-stage applications included the high as well as low application rates of each herbicide.
(§4) For comparison were also included in this test other acetolactate synthase-inhibiting herbicides reported in the literature as giving good weed control of Orobanche (L. García-Torres et al., Weed Research 1994, 34, 395-402; L. García-Torres et al., Weed Technology 1995, 9, 819-824; J. Hershenhorn et al., Weed Technology 1998, 12, 108-114).

Orobanche cumana = test: Test E control of Orobanche cumana in resistant sunflower hybrid; format: in vivo
Experimental: The effect of the various treatments was evaluated 35 days after sowing. The sunflower roots were cleaned by washing in water, and the presence of Orobanche nodules was determined visually and by weighing root wet mass in comparison to check plants free of Orobanche infestation. […] The nodules caused by Orobanche increased root weight, and a correlation (r=0.7) was found between visual scores and weight measurements. Thus the weighing technique could be used to corroborate visual efficacy scorings. Orobanche emergence was also scored but found to be less useful to evaluate treatment efficiency at the evaluation timing of this test.
as §2, §3, §4

GA-M4M11 × RHA274 = test: Test A field trial, phytotoxicity, variety D; format: in vivo, sunflower; conditions: variety D; 30 g a.i./ha post-emergence
Text: (§5) To generate the hybrids C, D and E, the fourth generation self-pollinated maintainer mutant lines M4M12, M4M11 and M4M7 were chemically sterilized by applying at the bud “star” flower stage a small amount of gibberellic acid solution to sterilize the pollen according to the general method described in Sunflower Science Technology, J. F. Carter ed. (Number 19 in the series “Agronomy”) pp. 339-386. This treatment enables maintainer plants to behave as CMS inbred lines and allows the production of heterozygous resistant hybrids, with the herbicide resistant source coming from the female side. Such crosses allowed evaluating the sexual effect of the mutation source when introduced on the female side of a cross as described in crosses C, D and E versus the male side of a cross as described in crosses F, G and H. Labels I, J and K identify third generation CMS mutant lines crossed with fourth generation maintainer lines to maintain the highly heritable mutant trait in a male sterile homozygous resistant environment. One skilled in sunflower breeding art understands the meaning of such crosses.
(§6) A rating of 0% phytotoxicity means no crop injury.

GA-M4M12 × RHA274 = test: Test A field trial, phytotoxicity, variety C; format: in vivo, sunflower; conditions: variety C; 30 g a.i./ha post-emergence
Text: as §5, §6

BC3-M4M11 = test: Test A field trial, phytotoxicity, variety J; format: in vivo, sunflower; conditions: variety J; 30 g a.i./ha post-emergence
Text: as §5, §6

[3] = tested on: Homozygous resistant inbred lines, BC3-M4M12 (I), BC3-M4M11 (J) and BC3-M4M7 (K); test: Test A summary, homozygous resistant inbred lines; conditions: Test A application rates
Experimental: In a small field trial, the sunflower varieties described in Table 4 were sprayed post-emergence with a variety of sulfonylurea herbicide treatments.
Broadcast post-emergence applications of formulated sulfonylurea herbicides were performed at the 6-leaf development stage using four randomly distributed replications. Application rates were chosen to match the usual use rates of these herbicides in the crops they are registered in Europe. All herbicides except for metsulfuron-methyl were sprayed in combination with Citowet® non-ionic ethoxylated alcohol at 0.25% volume of formulated product per volume of water applied per hectare.
The evaluation of the maximum (i.e. peak) injury to sunflower varieties by sulfonylurea herbicides was measured by visual ratings, which are listed in Table 5. A rating of 0% phytotoxicity means no crop injury. […] A rating of 100% means the complete destruction of all plants.

[4] = tested on: Inbred line control: H89A; format: in vivo, sunflower; conditions: variety B; 30 g a.i./ha post-emergence
Text: as §5, §6

H89A × M4M7 = format: in vivo, sunflower; conditions: variety H; 30 g a.i./ha post-emergence
Text: as §5, §6

H89A × M4M11 = format: in vivo, sunflower; conditions: variety G; 30 g a.i./ha post-emergence
Text: as §5, §6

H89A × M4M12 = format: in vivo, sunflower; conditions: variety F; 30 g a.i./ha post-emergence
Text: as §5, §6

[5] = tested on: Hybrid control: H89A × RHA274; format: in vivo, sunflower; conditions: variety A; 30 g a.i./ha post-emergence
Text: as §5, §6

GA-M4M7 × RHA274 = test: Test A field trial, phytotoxicity, variety E; format: in vivo, sunflower; conditions: variety E; 30 g a.i./ha post-emergence
Text: as §5, §6

BC3-M4M7 = test: Test A field trial, phytotoxicity, variety K; format: in vivo, sunflower; conditions: variety K; 30 g a.i./ha post-emergence
Text: as §5, §6

BC3-M4M12 = test: Test A field trial, phytotoxicity, variety I; format: in vivo, sunflower; conditions: variety I; 30 g a.i./ha post-emergence
Text: as §5, §6

BC4-M5M7 × PHA155 = test: Test C field phytotoxicity, BC4-M5M7 × PHA155; format: in vivo, sunflower
Text: as §6

BC4-M5M12 × PHA155 = test: Test C field phytotoxicity, BC4-M5M12 × PHA155; format: in vivo, sunflower
Text: as §6

[6] = postemergence 6.25 g a.i./ha, 7 DAT
[7] = postemergence 6.25 g a.i./ha, 15 DAT
[8] = postemergence 6.25 g a.i./ha, 30 DAT
[9] = postemergence 12.5 g a.i./ha, 7 DAT
[10] = postemergence 12.5 g a.i./ha, 15 DAT
[11] = postemergence 12.5 g a.i./ha, 30 DAT

Row | SMILES | Maximum Phytotoxicity (BC4-M5M11; in vivo) [%] | Maximum Phytotoxicity (M5M11; in vivo) [%] | tolerance of the mutants [1] | Maximum Phytotoxicity (M5M12; in vivo) [%] | Maximum Phytotoxicity (BC4-M5M12; in vivo) [%] | Maximum Phytotoxicity (BC4-M5M7; in vivo) [%] | Maximum Phytotoxicity (M5M7; in vivo) [%] | also measured
1 | COc1cc(OC)nc(NC(=O)NS(=O)(=O)N(C)S(C)(=O)=O)n1 [Amidosulfuron, amidosulfuron] | 57.5 | 60 | somewhat sensitive | 45 | 55 | 47.5 | 52.5 | –
2 | COC(=O)c1ccc(C(F)(F)F)nc1S(=O)(=O)NC(=O)Nc1nc(OC)cc(OC)n1 [Flupyrsulfuron-methyl-sodium] | 60 | 50 | somewhat sensitive | 57.5 | 50 | 42.5 | 62.5 | –
3 | CCS(=O)(=O)c1nc2ccccn2c1S(=O)(=O)NC(=O)Nc1nc(OC)cc(OC)n1 [Sulfosulfuron] | 57.5 | 60 | somewhat sensitive | 65 | 50 | 47.5 | 50 | –
4 | COC(=O)c1c(Cl)nn(C)c1S(=O)(=O)NC(=O)Nc1nc(OC)cc(OC)n1 [Halosulfuron-methyl, halosulfuron-methyl] | – | – | somewhat sensitive | – | – | – | – | Maximum Phytotoxicity (BC4-M5M11; BC4-M5M11, 45 g a.i./ha post-emergence 4-leaf stage): 65%; Maximum Phytotoxicity (M5M11; M5M11, 45 g a.i./ha post-emergence 4-leaf stage): 60%; Maximum Phytotoxicity (M5M12; M5M12, 45 g a.i./ha post-emergence 4-leaf stage): 60%; Maximum Phytotoxicity (BC4-M5M12; BC4-M5M12, 45 g a.i./ha post-emergence 4-leaf stage): 65%; Maximum Phytotoxicity (BC4-M5M7; BC4-M5M7, 45 g a.i./ha post-emergence 4-leaf stage): 60%; Maximum Phytotoxicity (M5M7; M5M7, 45 g a.i./ha post-emergence 4-leaf stage): 50%
5 | CCc1cnc(C2=NC(C)(C(C)C)C(=O)N2)c(C(=O)O)c1 (stereo not shown) [Imazethapyr (ammonium salt), Imazethapyr] | 25 | 30 | marginal tolerance | 22.5 | 30 | 20 | 22.5 | Injury [2]: 0%; relative efficacy in controlling Orobanche (Orobanche cumana; Test E rates, metsulfuron-methyl compared with tribenuron-methyl): less efficacious in controlling Orobanche; Control (Orobanche cumana; pre-emergence 40 g a.i./ha): 60%
6 | COC(=O)c1ccccc1S(=O)(=O)NC(=O)Nc1nc(OC(F)F)cc(OC(F)F)n1 [Primisulfuron-methyl, primisulfuron-methyl] | – | – | – | – | – | – | – | Maximum Phytotoxicity (GA-M4M11 × RHA274): 75%; Maximum Phytotoxicity (GA-M4M12 × RHA274): 71%; Maximum Phytotoxicity (BC3-M4M11): 55%; tolerance of homozygous resistant lines compared with heterozygous hybrids [3]: the homozygous resistant lines were more tolerant; tolerance of homozygous resistant inbred lines I, J, K ([3]; triflusulfuron-methyl at 20 g a.i./ha): less susceptible than the standards; Maximum Phytotoxicity [4]: 100%; Maximum Phytotoxicity (H89A × M4M7): 69%; Maximum Phytotoxicity (H89A × M4M11): 73%; Maximum Phytotoxicity (H89A × M4M12): 66%; Maximum Phytotoxicity [5]: 100%; Maximum Phytotoxicity (GA-M4M7 × RHA274): 74%; Maximum Phytotoxicity (BC3-M4M7): 51%; Maximum Phytotoxicity (BC3-M4M12): 35%
7 | COc1cc(OC)nc(Sc2cccc(Cl)c2C(=O)O)n1 [Pyrithiobac-sodium] | 42.5 | 50 | somewhat sensitive | 40 | 40 | 35 | 37.5 | –
8 | CCOC(=O)c1ccccc1S(=O)(=O)NC(=O)Nc1nc(Cl)cc(OC)n1 [Chlorimuron-ethyl, chlorimuron-ethyl] | – | – | – | – | – | – | – | Phytotoxicity Rating After Treatment (BC4-M5M7 × PHA155; [6]): 83%; Phytotoxicity Rating After Treatment (BC4-M5M7 × PHA155; [7]): 73%; Phytotoxicity Rating After Treatment (BC4-M5M7 × PHA155; [8]): 67%; Phytotoxicity Rating After Treatment (BC4-M5M7 × PHA155; [9]): 85%; Phytotoxicity Rating After Treatment (BC4-M5M7 × PHA155; [10]): 83%; Phytotoxicity Rating After Treatment (BC4-M5M7 × PHA155; [11]): 83%; Phytotoxicity Rating After Treatment (BC4-M5M12 × PHA155; [6]): 70%; Phytotoxicity Rating After Treatment (BC4-M5M12 × PHA155; [7]): 80%; Phytotoxicity Rating After Treatment (BC4-M5M12 × PHA155; [8]): 68%; Phytotoxicity Rating After Treatment (BC4-M5M12 × PHA155; [9]): 80%; Phytotoxicity Rating After Treatment (BC4-M5M12 × PHA155; [10]): 90%; Phytotoxicity Rating After Treatment (BC4-M5M12 × PHA155; [11]): 88%
